{"source": "patent US10166229B2", "about": "“Compounds and methods for the treatment of cancer” (The Board of Trustees of the University of Illinois, priority 2005, dated 2019)", "key": {"[1]": {"test_system": "primary colon cancer cells", "assay": "Cell death in primary cancerous cells from resected colon tumors", "type": "cell-based, human"}, "[2]": {"test_system": "NCI-H226 lung cancer cell line", "assay": "Cell death IC50 (MTS) in NCI-H226", "type": "cell-based", "settings": "Homo sapiens, NCI-H226, 72 h, read-out: IC50 for cell death induction, NCI-H226"}, "[3]": {"test_system": "NCI-H226 (lung cancer) cells injected i.v.", "assay": "NCI-H226 i.v. injection lung model, oral gavage", "type": "in vivo, mice", "settings": "100 mg/kg oral gavage days 1-4 and 7-11, 28 days"}, "HL-60 cells": {"test_system": "HL-60 cells", "assay": "Cell death induction IC50 (MTS) in HL-60", "type": "cell-based, human"}, "PARP-1": {"molecular_target": "PARP-1 (Homo sapiens (Human), UniProt P09874)", "sequence (P09874 whole entry, species assumed)": "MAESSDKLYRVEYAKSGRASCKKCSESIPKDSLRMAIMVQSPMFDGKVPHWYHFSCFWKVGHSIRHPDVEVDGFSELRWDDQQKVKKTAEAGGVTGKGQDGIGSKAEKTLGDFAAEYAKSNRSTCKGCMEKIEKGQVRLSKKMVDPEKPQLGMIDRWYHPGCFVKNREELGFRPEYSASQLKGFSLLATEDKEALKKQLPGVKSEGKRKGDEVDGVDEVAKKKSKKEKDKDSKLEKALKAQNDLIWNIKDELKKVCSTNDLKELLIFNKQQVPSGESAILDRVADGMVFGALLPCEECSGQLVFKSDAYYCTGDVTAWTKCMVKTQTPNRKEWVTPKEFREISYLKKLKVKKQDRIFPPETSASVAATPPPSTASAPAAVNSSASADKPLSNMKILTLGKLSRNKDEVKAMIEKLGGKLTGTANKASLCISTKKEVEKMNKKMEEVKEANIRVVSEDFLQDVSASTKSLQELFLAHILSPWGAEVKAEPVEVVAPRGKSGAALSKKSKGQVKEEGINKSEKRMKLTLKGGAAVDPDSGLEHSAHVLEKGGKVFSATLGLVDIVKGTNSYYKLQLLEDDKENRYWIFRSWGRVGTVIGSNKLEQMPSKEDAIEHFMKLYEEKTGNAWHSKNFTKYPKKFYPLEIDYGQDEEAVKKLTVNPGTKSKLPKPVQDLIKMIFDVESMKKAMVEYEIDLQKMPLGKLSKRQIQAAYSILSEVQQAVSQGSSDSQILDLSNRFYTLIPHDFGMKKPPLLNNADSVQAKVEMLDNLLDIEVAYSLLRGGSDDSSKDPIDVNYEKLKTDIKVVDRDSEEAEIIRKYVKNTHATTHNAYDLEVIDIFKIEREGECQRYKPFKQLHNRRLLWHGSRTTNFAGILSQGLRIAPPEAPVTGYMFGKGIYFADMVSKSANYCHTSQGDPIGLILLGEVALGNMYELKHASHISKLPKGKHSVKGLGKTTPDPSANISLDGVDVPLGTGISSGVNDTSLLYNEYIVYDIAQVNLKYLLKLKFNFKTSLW", "assay": "Control experiment: direct inhibition of PARP-1 enzymatic activity", "type": "biochemical", "settings": "control experiments"}, "[4]": {"test_system": "cellular PARP activity in HL-60 cells", "assay": "In vivo PARP activity assay (PARP cleavage) in HL-60", "type": "cell-based, human", "settings": "HL-60, 100 μM PAC-1", "method": "In vivo determination of PARP cleavage. The amount of PARP cleavage was determined by using an in vivo PARP activity assay. To accomplish this, 50 μL of media containing 200 μM NAD^+ was added to the control wells of a 96-well plate. […] 25 μL of HL-60 cells at a concentration of 5×10^6 cells/mL were then added to each well. The cells were incubated for various times and then spun at 1000×g for 5 minutes. The cell media was removed and replaced with 50 μL Lysing PARP Buffer (50 mM Tris, 10 mM MgCl2, pH 8.0, 1% Triton X-100) containing 25 mM H2O2. The plate was then incubated for 60 minutes at 37° C. To determine the amount of NAD^+ still present, 20 μL of 2 M KOH and 20 μL of a 20% (v/v) acetophenone (in ethanol) solution was added to each well of the 96-well plate. The plate was then incubated for 10 minutes at 4° C. 90 μL of an 88% (v/v) formic acid solution was added to each well of the 96-well plate. […] The plate was allowed to cool and then read on a Criterion Analyst AD (Molecular Devices, Sunnyvale, Calif.) with an excitation of 360 nm, an emission of 445 nm and a 400 nm cutoff dichroic mirror. The fluorophore was excited using a 1000 W continuous lamp for 1.6×10^5 μs with 5 reads performed per well. The number of moles of NAD^+ cleaved per minute was then calculated and the remaining PARP activity as compared to control wells was determined."}, "[5]": {"assay": "Plasma PAC-1 content after pellet implantation", "type": "in vivo, mice", "settings": "female, athymic BALB/c (nude), mouse, other: implantation of a pellet of PAC-1 and cholesterol, 5 mg pellet, after the 54 day experiment", "method": "PAC-1 was evaluated in a mouse xenograft model using a slow release mode of drug delivery. In this model, subcutaneous tumors were formed in ovariectomized female athymic BALB/c (nude) mice using the ACHN (renal cancer) cell line. […] Tumor sizes were monitored for about 8 weeks. […] After the mice were sacrificed, plasma samples were taken from each mouse, and the PAC-1 content of each was analyzed."}, "[6]": {"test_system": "caspase-3 like activity in HL-60 cells", "assay": "Caspase-3 like activity in HL-60 cells", "type": "cell-based, human", "settings": "HL-60, 100 μM PAC-1", "method": "In vivo determination of caspase-3 like activity. The amount of caspase-3 like protease activity was determined by the amount of Ac-DEVD-pNA (N-acetyl-ASP-Glu-Val-Asp-p-nitroanilide) (SEQ ID NO: 28) cleaved per minute by cell lysates. […] 50 μL of HL-60 cells at a concentration of 5×10^6 cells/mL were added to the plate and incubated for various times. After the incubation period, the plate was spun at 1000×g for 5 minutes to pellet the cells. The cells were then washed with 100 μL of PBS and resuspended in 150 μL of ice cold Caspase Assay Buffer. Each well was then sonicated to lyse the cells. 90 μL of cell lysate was transferred from each well into a new plate. Ac-DEVD-pNA (SEQ ID NO: 28) was added into each well to give a final concentration of 200 μM. […] The slope of the linear portion for each well was determined and the amount of Ac-DEVD-pNA (SEQ ID NO: 28) cleaved per minute was calculated."}, "[7]": {"test_system": "white blood cells from bone marrow, Hs888Lu, MCF-10A, Hs578Bst", "assay": "Cell death in four non-cancerous cell types", "type": "cell-based"}, "[8]": {"test_system": "MCF-7, breast cancer cells", "assay": "Cell death IC50 in MCF-7", "settings": "Homo sapiens, MCF7, read-out: IC50 for death induction, MCF-7", "description": "Determination of IC50 values in various cell lines. 50 μL of media containing various concentrations of PAC-1 or etoposide was added to each well of a 96-well plate except control wells, which contained only DMSO. […] The plates were then incubated at 37° C. for approximately one hour until the colored product formed."}, "procaspase-7": {"molecular_target": "procaspase-7 (Homo sapiens (Human), UniProt P55210)", "sequence (P55210 whole entry)": "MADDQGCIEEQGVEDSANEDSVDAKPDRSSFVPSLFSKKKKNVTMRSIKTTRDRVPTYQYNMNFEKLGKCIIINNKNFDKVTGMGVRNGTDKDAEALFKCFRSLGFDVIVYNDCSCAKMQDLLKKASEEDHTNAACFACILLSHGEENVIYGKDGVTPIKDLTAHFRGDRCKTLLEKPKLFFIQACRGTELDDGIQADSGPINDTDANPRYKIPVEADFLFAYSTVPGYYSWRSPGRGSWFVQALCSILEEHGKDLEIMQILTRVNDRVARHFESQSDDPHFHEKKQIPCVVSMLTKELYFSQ", "settings": "read-out: EC50 for activation of procaspase-7"}, "procaspase-3": {"molecular_target": "procaspase-3 (Homo sapiens (Human), UniProt P42574)", "sequence (P42574 whole entry)": "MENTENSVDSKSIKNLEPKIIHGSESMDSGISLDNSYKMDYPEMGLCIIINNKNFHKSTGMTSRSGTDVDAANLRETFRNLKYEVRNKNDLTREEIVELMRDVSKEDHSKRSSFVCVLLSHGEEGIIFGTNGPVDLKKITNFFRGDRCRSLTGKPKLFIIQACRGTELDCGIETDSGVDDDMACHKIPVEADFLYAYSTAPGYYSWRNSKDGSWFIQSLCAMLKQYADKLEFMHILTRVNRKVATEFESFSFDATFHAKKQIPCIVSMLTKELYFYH", "assay": "Effect of pH on PAC-1 activation of procaspase-3", "type": "biochemical", "settings": "low pH values", "method": "The plate was then incubated for 12 hours at 37° C. 10 μL of a 2 mM solution of Ac-DEVD-pNA (SEQ ID NO: 28) in caspase assay buffer was then added to each well. […] The slope of the linear portion for each well was determined and the fold increase in activation for each pH value was calculated."}, "[9]": {"test_system": "NCI-H226 (lung cancer) xenograft", "assay": "NCI-H226 xenograft, intraperitoneal PAC-1", "type": "in vivo, mice", "settings": "i.p. 10 mg/kg", "method": "A xenograft model was employed using NCI-H226 (lung cancer) cells. […] A comparison of efficacy was performed with gefitinib (Iressa™; AstraZeneca, Wilmington, Del.) at 40 mg/kg using 5 mice per group."}, "[10]": {"test_system": "cells from adjacent non-cancerous tissue", "assay": "Cell death in cells from adjacent non-cancerous colon tissue", "type": "cell-based, human", "source_text": "To test this direct, small molecule-mediated procaspase-3 activation strategy in clinical isolates of cancer, we obtained freshly resected colon tumors (together with adjacent non-cancerous tissue) from 18 patients from Carle Foundation Hospital (Urbana, Ill.)."}, "[11]": {"test_system": "mitochondrial membrane depolarization in HL-60 cells", "assay": "Mitochondrial membrane potential (JC-9) in HL-60", "type": "cell-based, human", "method": "The cells were incubated for various times, and the cells then were harvested by centrifugation. The cells were washed in PBS and resuspended in 1 mL of PBS. 10 μg of the JC-9 dye was added and the cells were incubated at room temperature for 10 minutes protected from light. The cells were then washed two times with PBS and brought up in 500 μL PBS. The fluorescent intensity of each cell was determined by flow cytometry at 525 nm (green channel) and 675 nm (red channel). 50,000 cells were analyzed in each experiment. The shift in the red channel was then used to determine the amount of mitochondrial membrane depolarization."}}, "note": "Values joined by “and” are separate entries in the source; they are usually repeats but may differ in a detail not shown here. Identical values can stand only once. “Also recorded” adds a separate entry of the source. Like-named read-outs stand apart in the source and are kept apart here.", "data": [{"smiles": "C=CCc1cccc(/C=N/NC(=O)CN2CCN(Cc3ccccc3)CC2)c1O", "note": "[PAC-1]", "values": [{"measurement": "sensitivity of cells in cancerous tissue in comparison with normal tissue", "setting": "[1]; FIG. 6B, Patient 3", "value": "greater than 80 fold"}, {"measurement": "IC50", "setting": "[1]; Homo sapiens, read-out: IC50 in cancer cells from patient 17, patient 17", "value": 0.007, "unit": "µM"}, {"measurement": "sensitivity of cancer cells versus cells from adjacent normal tissue", "setting": "[1]; patient 17", "value": "over 700 fold"}, {"measurement": "IC50", "setting": "[2]", "value": 0.35, "unit": "µM"}, {"measurement": "lung tumor mass, NCI-H226 i.v. injection model", "setting": "[3]", "value": "clear difference; also recorded: almost no visible gray matter"}, {"measurement": "cell death induction in cancer cells in culture (in words)", "setting": "HL-60 cells", "value": "induce death in cancer cells"}, {"measurement": "IC50", "setting": "HL-60 cells; Homo sapiens, HL-60, Table 3, read-out: IC50 (μM) for death induction in HL-60 cells", "value": 0.92, "unit": "µM"}, {"measurement": "direct inhibition of enzymatic activity of PARP-1", "setting": "PARP-1", "value": "does not directly inhibit"}, {"measurement": "cellular PARP activity / PARP-1 cleavage", "setting": "[4]", "value": "rapidly reduced; also recorded: induces cleavage of the caspase substrate PARP-1; also recorded: rapid decrease"}, {"measurement": "concentration at 54 day", "setting": "[5]", "value": 5, "unit": "nM"}, {"measurement": "time to 50% activation of caspase-3-like activity", "setting": "[6]", "value": "over 2 hours"}, {"measurement": "IC50", "setting": "[7]", "value": "3.2 to 8.5", "unit": "µM"}, {"measurement": "IC50", "setting": "[8]", "value": "> 75", "unit": "µM"}, {"measurement": "EC50", "setting": "procaspase-7", "value": 4.5, "unit": "µM"}, {"measurement": "effect of PAC-1 on procaspase-3 at low pH", "setting": "procaspase-3", "value": "abolished"}, {"measurement": "growth in tumor volume, NCI-H226 xenograft", "setting": "[9]", "value": "associated with reducing growth in tumor volume"}, {"measurement": "IC50", "setting": "[10]; Homo sapiens, read-out: PAC-1, IC50, Normal (adjacent non-cancerous tissue), per patient, 18 patients", "value": "5.02 to 9.98", "unit": "µM"}, {"measurement": "IC50", "setting": "[10]; read-out: PAC-1, IC50, Normal (adjacent non-cancerous tissue), per patient, 18 patients", "value": "6.88 µM and 6.28 µM and 7.34 µM and 5.67 µM and 6.54 µM and 9.98 µM and 5.94 µM and 5.63 µM and 5.5 µM and 7.58 µM and 5.96 µM and 5.02 µM and 5.17 µM and 6.39 µM and 6.78 µM and 9.79 µM and 6.61 µM and 9.5 µM"}, {"measurement": "mitochondrial membrane depolarization", "setting": "[11]", "value": "causes mitochondrial membrane depolarization"}]}]}
